Values joined by “and” are separate entries in the source; they are usually repeats but may differ in a detail not shown here. Equal entries are not always repeated. Where two headings read alike, the source gives them in different places.
Columns and labels:
KRAS G12C = KRAS G12C (Homo sapiens, UniProt P01116+P62937, G12C); assay: Disruption of BRAF RBD interaction with Ras (FRET / MOA assay, with Cyclophilin A); format: biochemical
In short: (§1)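 TR-FRET readout: a drop in ratio relative to DMSO wells marks disruption of the K-Ras:BRAF RBD complex via compound-induced K-Ras–Cyclophilin A ternary complex. Dosing used ten 3-fold steps from 30 μM final, 3 h at 25 °C, then Eu-anti-His 10 nM plus APC-anti-GST 50 nM for another 1.5 h. Values are IC50s.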

KRAS G12D = KRAS G12D (Homo sapiens, UniProt P01116+P62937, G12D); assay: as above; format: biochemical
In short: as §1

KRAS WT = KRAS WT (Homo sapiens, UniProt P01116+P62937); assay: as above; format: biochemical
In short: as §1

KRAS G12S = KRAS G12S (Homo sapiens, UniProt P01116+P62937, G12S); assay: as above; format: biochemical
In short: as §1

NRAS G12C = NRAS G12C (Homo sapiens, UniProt P01111+P62937, G12C); assay: as above; format: biochemical
KRAS G12V = KRAS G12V (Homo sapiens, UniProt P01116+P62937, G12V); assay: as above; format: biochemical
In short: as §1

KRAS G13D = KRAS G13D (Homo sapiens, UniProt P01116+P62937, G13D); assay: as above; format: biochemical
In short: as §1

KRAS G13C = KRAS G13C (Homo sapiens, UniProt P01116+P62937, G13C); assay: as above; format: biochemical
In short: as §1

Capan-1 (K-Ras G12V) = assay: CellTiter-Glo cell viability assay, 5-day treatment; format: cell-based; details: Homo sapiens, CAPAN-1, 120 h, 5-day treatment; read-out: Capan-1 Cell Viability assay data (K-Ras G12V, IC50)
In short: (§2)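 Seeded cells received test compound by direct dispensing. On day 5 the plates sat at room temperature approximately 30 minutes, then luminescence was measured. Data were normalized to DMSO and curve-fitted with four parameters.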

NCI-H358 (K-Ras G12C) = assay: as above; format: cell-based; details: Homo sapiens, NCI-H358, 120 h, 5-day treatment; read-out: H358 Cell Viability assay data (K-Ras G12C, IC50)
In short: as §2

[1] = KRAS WT FRET data IC50, KRAS WT
[2] = NRAS G12C FRET data IC50, NRAS G12C
[3] = KRAS G12V FRET data IC50, KRAS G12V
[4] = KRAS G13D FRET data IC50, KRAS G13D
[5] = read-out: KRAS G12C FRET data, IC50
[6] = read-out: KRAS G12D FRET data, IC50
[7] = KRAS WT, read-out: KRAS WT FRET data IC50
[8] = read-out: KRAS G12S FRET data, IC50
[9] = NRAS G12C, read-out: NRAS G12C FRET data IC50
[10] = KRAS G12V, read-out: KRAS G12V FRET data IC50
[11] = KRAS G13D, read-out: KRAS G13D FRET data IC50
[12] = read-out: KRAS G13C FRET data, IC50

Chain of KRAS G13D (P01116 1-169 isoform P01116-2 G13D limits assumed): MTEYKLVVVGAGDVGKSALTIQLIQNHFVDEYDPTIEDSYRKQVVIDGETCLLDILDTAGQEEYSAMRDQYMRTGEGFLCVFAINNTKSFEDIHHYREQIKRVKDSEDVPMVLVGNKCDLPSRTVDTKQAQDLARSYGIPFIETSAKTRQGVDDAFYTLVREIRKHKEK
Chain of KRAS G13D (P62937 whole entry): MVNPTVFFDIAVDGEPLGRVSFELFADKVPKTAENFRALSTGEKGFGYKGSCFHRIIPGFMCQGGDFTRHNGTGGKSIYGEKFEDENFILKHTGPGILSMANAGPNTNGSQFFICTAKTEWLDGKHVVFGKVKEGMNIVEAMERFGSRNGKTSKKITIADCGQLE
Chain of KRAS G13C (P01116 1-169 isoform P01116-2 G13C): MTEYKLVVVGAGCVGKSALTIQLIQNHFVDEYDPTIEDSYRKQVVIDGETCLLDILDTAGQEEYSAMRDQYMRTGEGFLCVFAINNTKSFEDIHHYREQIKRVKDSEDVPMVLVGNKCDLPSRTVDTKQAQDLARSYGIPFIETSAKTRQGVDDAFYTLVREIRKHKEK
Chain of KRAS G13C (P62937 whole entry): as the sequence (P62937 whole entry) above
Chain of KRAS G12V (P01116 1-169 isoform P01116-2 G12V limits assumed): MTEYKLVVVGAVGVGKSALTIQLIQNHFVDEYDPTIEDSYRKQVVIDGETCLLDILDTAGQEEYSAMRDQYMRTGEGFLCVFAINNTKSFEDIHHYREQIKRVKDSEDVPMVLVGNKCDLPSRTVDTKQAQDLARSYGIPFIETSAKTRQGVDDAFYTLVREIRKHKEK
Chain of KRAS G12V (P62937 whole entry): as the sequence (P62937 whole entry) above
Chain of KRAS G12C (P01116 1-169 isoform P01116-2 G12C): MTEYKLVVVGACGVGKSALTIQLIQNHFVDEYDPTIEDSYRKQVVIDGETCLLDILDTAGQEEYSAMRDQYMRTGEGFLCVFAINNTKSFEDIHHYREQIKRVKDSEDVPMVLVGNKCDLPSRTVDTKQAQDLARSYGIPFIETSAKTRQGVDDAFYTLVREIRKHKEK
Chain of KRAS G12C (P62937 whole entry): as the sequence (P62937 whole entry) above
Chain of KRAS WT (P01116 1-169 isoform P01116-2 limits assumed): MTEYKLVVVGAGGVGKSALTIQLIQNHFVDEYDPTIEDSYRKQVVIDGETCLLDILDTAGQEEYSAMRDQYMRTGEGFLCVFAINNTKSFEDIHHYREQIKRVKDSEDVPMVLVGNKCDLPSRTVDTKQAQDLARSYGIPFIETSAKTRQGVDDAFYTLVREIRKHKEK
Chain of KRAS WT (P62937 whole entry): as the sequence (P62937 whole entry) above
Chain of NRAS G12C (P01111 whole entry G12C): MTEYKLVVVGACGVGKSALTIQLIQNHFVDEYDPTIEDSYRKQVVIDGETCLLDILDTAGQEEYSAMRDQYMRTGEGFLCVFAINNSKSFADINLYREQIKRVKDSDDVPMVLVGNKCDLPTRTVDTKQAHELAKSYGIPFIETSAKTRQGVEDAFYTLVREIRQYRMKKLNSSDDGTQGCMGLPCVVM
Chain of NRAS G12C (P62937 whole entry): as the sequence (P62937 whole entry) above
Chain of KRAS G12D (P01116 1-169 isoform P01116-2 G12D limits assumed): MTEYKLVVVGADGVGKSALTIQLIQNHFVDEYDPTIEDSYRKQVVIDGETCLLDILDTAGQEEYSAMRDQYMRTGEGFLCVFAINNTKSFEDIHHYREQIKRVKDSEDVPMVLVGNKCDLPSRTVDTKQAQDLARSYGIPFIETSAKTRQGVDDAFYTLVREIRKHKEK
Chain of KRAS G12D (P62937 whole entry): as the sequence (P62937 whole entry) above
Chain of KRAS G12S (P01116 1-169 isoform P01116-2 G12S limits assumed): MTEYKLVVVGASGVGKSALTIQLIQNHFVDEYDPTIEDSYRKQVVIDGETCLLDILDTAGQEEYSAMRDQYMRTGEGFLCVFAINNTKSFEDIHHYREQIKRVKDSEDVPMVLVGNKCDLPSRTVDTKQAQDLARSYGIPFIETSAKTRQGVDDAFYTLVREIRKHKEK
Chain of KRAS G12S (P62937 whole entry): as the sequence (P62937 whole entry) above

IC50 (KRAS G12C; KRAS G12C FRET data, IC50)	IC50 (KRAS G12D; KRAS G12D FRET data, IC50)	IC50 (KRAS WT; [1])	IC50 (KRAS G12S; KRAS G12S FRET data, IC50)	IC50 (NRAS G12C; [2])	IC50 (KRAS G12V; [3])	IC50 (KRAS G13D; [4])	IC50 (KRAS G13C; KRAS G13C FRET data, IC50)	IC50 (NCI-H358 (K-Ras G12C))	IC50 (KRAS G12C; [5])	IC50 (KRAS G12D; [6])	IC50 (KRAS WT; [7])	IC50 (KRAS G12S; [8])	IC50 (NRAS G12C; [9])	IC50 (KRAS G12V; [10])	IC50 (KRAS G13D; [11])	IC50 (KRAS G13C; [12])	SMILES	IC50 (Capan-1 (K-Ras G12V))
–	–	–	–	–	–	–	–	100 to 1000 nM	100 to 1000 nM	100 to 1000 nM	100 to 1000 nM	100 to 1000 nM	100 to 1000 nM	100 to 1000 nM	100 to 1000 nM	100 to 1000 nM	CCn1c(-c2cccnc2[C@H](C)OC)c2c3cc(ccc31)-c1cc(O)cc(c1)C[C@H](NC(=O)[C@H](C(C)C)N(C)C(=O)C1(CO)CC1)C(=O)N1CCC[C@H](N1)C(=O)OCC(C)(C)C2 [Example A232]	100 to 1000 nM
100 to 1000 nM	1000 to 10000 nM	100 to 1000 nM	100 to 1000 nM	100 to 1000 nM	100 to 1000 nM	100 to 1000 nM	100 to 1000 nM	100 to 1000 nM	–	–	–	–	–	–	–	–	CCn1c(-c2cnccc2COC)c2c3cc(ccc31)-c1cc(O)cc(c1)C[C@H](NC(=O)[C@H](C(C)C)N(C)C(=O)[C@H]1CCCO1)C(=O)N1CCC[C@H](N1)C(=O)OCC(C)(C)C2 [Example A90]	100 to 1000 nM
10 to 100 nM	1000 to 10000 nM	100 to 1000 nM	100 to 1000 nM	100 to 1000 nM	100 to 1000 nM	100 to 1000 nM	100 to 1000 nM	1000 to 10000 nM	–	–	–	–	–	–	–	–	CCn1c(-c2cnccc2COC)c2c3cc(ccc31)-c1cc(O)cc(c1)C[C@H](NC(=O)[C@H](C(C)C)N(C)C(=O)[C@H]1CCN(C=O)C1)C(=O)N1CCC[C@H](N1)C(=O)OCC(C)(C)C2 [Example A17, (2S)—N-[(8S,14S)-22-ethyl-4-hydroxy-21-[4-(methoxymethyl)pyridin-3-yl]-18,18-dimethyl-9,15-dioxo-16-oxa-10,22,28-triazapentacyclo[18.5.2.1^2,6.1^10,14.0^23,27]nonacosa-1(26),2,4,6(29),20,23(27),24-heptaen-8-yl]-2-{1-[(3S)-1-formylpyrrolidin-3-yl]-N-methylformamido}-3-methylbutanamide]	1000 to 10000 nM
–	–	–	–	–	–	–	–	> 10000 nM	100 to 1000 nM	10 to 100 nM	100 to 1000 nM	100 to 1000 nM	100 to 1000 nM	1000 to 10000 nM	10 to 100 nM	10 to 100 nM	CCn1c(-c2cccnc2[C@H](C)OC)c2c3cc(ccc31)-c1cc(O)cc(c1)C[C@H](NC(=O)[C@H](C(C)C)N(C)C(=O)C1CC3CC1CN3)C(=O)N1CCC[C@H](N1)C(=O)OCC(C)(C)C2 (stereo partly shown) [Example A133]	> 10000 nM
–	–	–	–	–	–	–	–	100 to 1000 nM	10 to 100 nM	100 to 1000 nM	10 to 100 nM	100 to 1000 nM	100 to 1000 nM	100 to 1000 nM	100 to 1000 nM	10 to 100 nM	CCn1c(-c2cccnc2[C@H](C)OC)c2c3cc(ccc31)-c1cc(O)cc(c1)C[C@H](NC(=O)[C@H](C(C)C)N(C)C(=O)Cc1cc[nH]n1)C(=O)N1CCC[C@H](N1)C(=O)OCC(C)(C)C2 [Example A126]	100 to 1000 nM
–	–	–	–	–	–	–	–	100 to 1000 nM	100 to 1000 nM	1000 to 10000 nM	100 to 1000 nM	100 to 1000 nM	100 to 1000 nM	100 to 1000 nM	100 to 1000 nM	100 to 1000 nM	CCn1c(-c2cnccc2COC)c2c3cc(ccc31)-c1cc(O)cc(c1)C[C@H](NC(=O)[C@H](C(C)C)N(C)C(=O)[C@H]1CCOC1)C(=O)N1CCC[C@H](N1)C(=O)OCC(C)(C)C2 [Example A26]	100 to 1000 nM

More lines, now with the values behind:

SMILES	IC50 (KRAS G12C; KRAS G12C FRET data, IC50)	IC50 (KRAS G12D; KRAS G12D FRET data, IC50)	IC50 (KRAS WT; [1])	IC50 (KRAS G12S; KRAS G12S FRET data, IC50)	IC50 (NRAS G12C; [2])	IC50 (KRAS G12V; [3])	IC50 (KRAS G13D; [4])	IC50 (KRAS G13C; KRAS G13C FRET data, IC50)	IC50 (NCI-H358 (K-Ras G12C))	IC50 (KRAS G12C; [5])	IC50 (KRAS G12D; [6])	IC50 (KRAS WT; [7])	IC50 (KRAS G12S; [8])	IC50 (NRAS G12C; [9])	IC50 (KRAS G12V; [10])	IC50 (KRAS G13D; [11])	IC50 (KRAS G13C; [12])	IC50 (Capan-1 (K-Ras G12V))
CCn1c(-c2cnccc2COC)c2c3cc(ccc31)-c1cc(O)cc(c1)C[C@H](NC(=O)[C@H](C(C)C)N(C)C(=O)[C@H]1CCN(C(=O)OC)C1)C(=O)N1CCC[C@H](N1)C(=O)OCC(C)(C)C2 [Example A11, methyl (3S)-3-{[(1S)-1-{[(8S,14S)-22-ethyl-4-hydroxy-21-[4-(methoxymethyl)pyridin-3-yl]-18,18-dimethyl-9,15-dioxo-16-oxa-10,22,28-triazapentacyclo[18.5.2.1^2,6.1^10,14.0^23,27]nonacosa-1(26),2,4,6(29),20,23(27),24-heptaen-8-yl]carbamoyl}-2-methylpropyl](methyl)carbamoyl}pyrrolidine-1-carboxylate]	10 to 100 nM	1000 to 10000 nM	100 to 1000 nM	100 to 1000 nM	10 to 100 nM	10 to 100 nM	100 to 1000 nM	100 to 1000 nM	100 to 1000 nM	–	–	–	–	–	–	–	–	100 to 1000 nM
CCN1CC(C(=O)N(C)[C@H](C(=O)N[C@H]2Cc3cc(O)cc(c3)-c3ccc4c(c3)c(c(-c3cccnc3[C@H](C)OC)n4CC)CC(C)(C)COC(=O)[C@@H]3CCCN(N3)C2=O)C(C)C)CC1=O (stereo partly shown) [Example A248]	–	–	–	–	–	–	–	–	10 to 100 nM	10 to 100 nM	100 to 1000 nM	100 to 1000 nM and 10 to 100 nM	10 to 100 nM	10 to 100 nM	100 to 1000 nM and 10 to 100 nM	100 to 1000 nM and 10 to 100 nM	10 to 100 nM	100 to 1000 nM
CCn1c(-c2cccnc2[C@H](C)OC)c2c3cc(ccc31)-c1csc(n1)C[C@H](NC(=O)[C@H](C(C)C)N(C)C(=O)N(C)CC(C)C)C(=O)N1CCC[C@H](N1)C(=O)OCC(C)(C)C2 [Example A332]	–	–	–	–	–	–	–	–	100 to 1000 nM	100 to 1000 nM	100 to 1000 nM	100 to 1000 nM	100 to 1000 nM	100 to 1000 nM	100 to 1000 nM	100 to 1000 nM	100 to 1000 nM	100 to 1000 nM
CCn1c(-c2cccnc2[C@H](C)OC)c2c3cc(ccc31)-c1cc(O)cc(c1)C[C@H](NC(=O)[C@H](C(C)C)N(C)C(=O)C1NCCC13CC3)C(=O)N1CCC[C@H](N1)C(=O)OCC(C)(C)C2 (stereo partly shown) [Example A228]	–	–	–	–	–	–	–	–	100 to 1000 nM	10 to 100 nM	10 to 100 nM	10 to 100 nM	10 to 100 nM	10 to 100 nM	100 to 1000 nM	10 to 100 nM	10 to 100 nM	100 to 1000 nM
CCn1c(-c2cccnc2[C@H](C)OC)c2c3cc(ccc31)-c1cc(O)cc(c1)C[C@H](NC(=O)[C@H](C(C)C)N(C)C(=O)C1(O)CC1)C(=O)N1CCC[C@H](N1)C(=O)OCC(C)(C)C2 (atropisomer, axis not shown) [Example A132]	–	–	–	–	–	–	–	–	100 to 1000 nM	10 to 100 nM	100 to 1000 nM	100 to 1000 nM	100 to 1000 nM	100 to 1000 nM	100 to 1000 nM	100 to 1000 nM	10 to 100 nM	10 to 100 nM
CCN(CC)C1CN(C(=O)N(C)[C@H](C(=O)N[C@H]2Cc3nc(cs3)-c3ccc4c(c3)c(c(-c3cccnc3[C@H](C)OC)n4CC)CC(C)(C)COC(=O)[C@@H]3CCCN(N3)C2=O)C(C)C)C1 [Example A319]	–	–	–	–	–	–	–	–	10 to 100 nM	100 to 1000 nM	1000 to 10000 nM	100 to 1000 nM	100 to 1000 nM	10 to 100 nM	100 to 1000 nM	100 to 1000 nM	100 to 1000 nM	10 to 100 nM
CCn1c(-c2cnccc2COC)c2c3cc(ccc31)-c1cc(O)cc(c1)C[C@H](NC(=O)[C@H](C(C)C)N(C)C(=O)OC1CN(C)C1)C(=O)N1CCC[C@H](N1)C(=O)OCC(C)(C)C2 [Example A101]	–	–	–	–	–	–	–	–	1000 to 10000 nM	100 to 1000 nM	100 to 1000 nM	100 to 1000 nM	100 to 1000 nM	100 to 1000 nM	1000 to 10000 nM	100 to 1000 nM	10 to 100 nM	1000 to 10000 nM

Reference: patent publication US20230233569A1 (Revolution Medicines, Inc., priority 2020, published 2023)
